What was measured:
[1] = molecular target: T1, P2Y14 receptor (Homo sapiens, UniProt Q15391); experiment: cAMP inhibition assay in HEK293 cells stably transfected with the P2Y14 receptor (UDPG-stimulated, cAMP Glo); format: cell-based; conditions: 100 nM compound; HEK293 stably transfected with P2Y14 receptor; 30 μM Forskolin, 1 μM UDPG, 4 h; inhibition rate from cAMP content; read-out: Inhibition @ 100 nM
T1 construct: expressed in transfected cells; host or cells: HEK293
T1 sequence (Q15391 1-338): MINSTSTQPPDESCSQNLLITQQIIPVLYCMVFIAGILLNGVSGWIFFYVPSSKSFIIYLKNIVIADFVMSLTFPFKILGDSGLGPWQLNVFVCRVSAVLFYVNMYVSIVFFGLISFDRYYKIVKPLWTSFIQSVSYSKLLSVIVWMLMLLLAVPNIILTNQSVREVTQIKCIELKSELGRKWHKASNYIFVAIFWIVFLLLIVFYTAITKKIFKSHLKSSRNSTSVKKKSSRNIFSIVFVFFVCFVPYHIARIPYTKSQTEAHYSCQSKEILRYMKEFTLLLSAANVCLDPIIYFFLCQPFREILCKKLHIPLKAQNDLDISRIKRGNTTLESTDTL
Description: An HEK293 cell strain stably transfected with the P2Y14 receptor was cultured in a DMEM culture medium (containing […], 100 U/mL penicillin, and 100 μg/mL streptomycin). Before the experiment, the cells were seeded into a culture plate at a density of 1×10^5 cells/well, and a serum-free culture medium was used instead. The cells were cultured at 37° C. with […] and 5% CO2 humidity. IBMX was added to inhibit the activity of PDEs, thereby ensuring a relatively high level of cAMP. The AC agonist Forskolin (30 μM) was adopted to stimulate the production of cellular cAMP. Test compounds at different concentrations (0.01 nm, 0.1 nm, 1 nm, 10 nm, and 100 nm) were added in advance, and PPTN was used as a positive control. Subsequently, 1 μM P2Y14 receptor agonist UDPG was added, and after 4 h, the content of intracellular cAMP was measured using a cAMP Glo™ Assay kit (PROMEGA Co. Ltd., USA). The inhibition rate was calculated based on the cAMP content.

[2] = test system: acute peritonitis model; experiment: LPS-induced acute peritonitis model, inflammatory factors in peritoneal fluids; format: in vivo; conditions: 5, 10 and 20 mg/kg by intraarticular injection, male ICR mice, 6 h after injection, vs model control, FIGS. 6-8
Description: Male clean-grade ICR mice were housed with free access to water and food, and with illumination for 12 h every day at an ambient temperature of 25±2° C. The animals were divided into several groups, that is, a normal control group, a model control group, and administration groups (test compound and dexamethasone). An acute peritonitis model was induced by a single intraperitoneal injection of LSP, while an equal volume of physiological saline was injected into the joint cavity in the normal control group. Each administration group was given test compound 5 (5 mg/kg, 10 mg/kg, and 20 mg/kg) and dexamethasone (10 mg/kg) by intraarticular injection. 6 h after the injection, 8 mL of PBS was injected, and the peritoneal cavity fluids were collected.

[3] = test system: IL-1β in the supernatant of the THP-1 cell culture medium; experiment: IL-1β ELISA in supernatant of LPS/ATP-stimulated THP-1 cell culture medium; format: cell-based, Human; conditions: PPTN 5 μM, PMA-differentiated THP-1, LPS 100 ng/mL + ATP 5 mM, FIG. 5
Description: Human THP-1 cells were cultured in an RPMI-1640 culture medium (containing 10% fetal bovine serum, 100 U/mL penicillin, and 100 μg/mL streptomycin) and seeded into a culture plate at a density of 1×10^5 cells/well before the experiment. The cells were cultured at 37° C. with 95% 02 and 5% CO2 humidity. Before the experiment, PMA was added at 100 ng/mL to each well, and the cells were incubated for 24 h to induce the differentiation of the THP-1 cells into macrophages. Test compound 5 (2.5 μM, 5 μM, and 10 μM) and PPTN (5 μM) were added to the culture medium in advance for intervention. After 1 h, LPS at a final concentration of 100 ng/mL was added to the cells. After 3 h, ATP at a final concentration of 5 mM was added. After 1 h, the indexes were determined as follows:
The level of IL-1β in the supernatant of the cell culture medium was detected by an ELISA kit (Shenzhen NeoBioscience Technology Co., Ltd.), and the results are shown in FIG. 5.

Structure (SMILES) | inhibition at 0.1 µM [1] | gene expression levels of inflammatory factors in mouse peritoneal fluids [2] | level of IL-1β in the supernatant of the cell culture medium [3]
Cc1ccc(C(=O)Nc2cc(C(=O)O)sc2Oc2ccc(C)nc2)cc1 [Compound 5, 5-((6-methylpyridin-3-yl)oxy)-4-(4-methylbenzamido)thiophene-2-carboxylic acid] | 99.4% | down-regulate the gene expression levels of inflammatory factors to different degrees | –
O=C(O)c1cc(-c2ccc(C3CCNCC3)cc2)c2ccc(-c3ccc(C(F)(F)F)cc3)cc2c1 [PPTN] | – | – | showed an expected effect
